Data as given in ChEMBL document CHEMBL3045830, “Differential effect of triazoles on mycelial growth and disease measurements of Monilinia fructicola isolates with reduced sensitivity to DMI fungicides” (Crop Prot, 2007).
Active and inactive are the calls of the source. No cut-off for these calls is given here.

Columns and labels:
Assay type in all cases: functional, organism-based
Monilinia fructicola [1] = assay: Fungicidal activity against Monilinia fructicola isolate GADL133.04 infected peach fruit assessed as decrease in sporulation area at 0.112 ml/l applied 24 hr after inoculation after 5 days relative to untreated-control
Monilinia fructicola [2] = assay: Fungicidal activity against Monilinia fructicola isolate GADL133.04 infected peach fruit assessed as decrease in sporulation area at 0.112 ml/l applied 24 hr prior to inoculation after 5 days relative to untreated-control
Monilinia fructicola [3] = assay: Fungicidal activity against Monilinia fructicola isolate SCDL71.01 infected peach fruit assessed as decrease in sporulation area at 0.112 ml/l applied 24 hr after inoculation after 5 days relative to untreated-control
Monilinia fructicola [4] = assay: Fungicidal activity against Monilinia fructicola isolate SCDL71.01 infected peach fruit assessed as decrease in sporulation area at 0.112 ml/l applied 24 hr prior to inoculation after 5 days relative to untreated-control
Monilinia fructicola [5] = assay: Fungicidal activity against Monilinia fructicola isolate GADL193.04 infected peach fruit assessed as decrease in brown rot disease incidence at 0.112 ml/l applied 24 hr prior to inoculation after 5 days relative to untreated-control
Monilinia fructicola [6] = assay: Fungicidal activity against Monilinia fructicola isolate GADL133.04 infected peach fruit assessed as decrease in brown rot disease incidence at 0.112 ml/l applied 24 hr prior to inoculation after 5 days relative to untreated-control
Monilinia fructicola [7] = assay: Fungicidal activity against Monilinia fructicola isolate SCDL71.01 assessed as reduction in colony diameter after 5 days
Monilinia fructicola [8] = assay: Fungicidal activity against Monilinia fructicola isolate GADL193.04 infected peach fruit assessed as decrease in brown rot disease incidence at 0.112 ml/l applied 24 hr after inoculation after 5 days relative to untreated-control
Monilinia fructicola [9] = assay: Fungicidal activity against Monilinia fructicola isolate GADL133.04 infected peach fruit assessed as decrease in brown rot disease incidence at 0.112 ml/l applied 24 hr after inoculation after 5 days relative to untreated-control
Monilinia fructicola [10] = assay: Fungicidal activity against Monilinia fructicola isolate GADL133.04 assessed as reduction in colony diameter after 5 days
Monilinia fructicola [11] = assay: Fungicidal activity against Monilinia fructicola isolate GADL193.04 assessed as reduction in colony diameter after 5 days
Monilinia fructicola [12] = assay: Fungicidal activity against Monilinia fructicola isolate SCDL71.01 infected peach fruit assessed as decrease in brown rot disease incidence at 0.112 ml/l applied 24 hr prior to inoculation after 5 days relative to untreated-control
Monilinia fructicola [13] = assay: Fungicidal activity against Monilinia fructicola isolate SCDL71.01 infected peach fruit assessed as decrease in brown rot disease incidence at 0.112 ml/l applied 24 hr after inoculation after 5 days relative to untreated-control
Monilinia fructicola [14] = assay: Fungicidal activity against Monilinia fructicola isolate GADL193.04 infected peach fruit assessed as decrease in sporulation area at 0.112 ml/l applied 24 hr after inoculation after 5 days relative to untreated-control
Monilinia fructicola [15] = assay: Fungicidal activity against Monilinia fructicola isolate GADL193.04 infected peach fruit assessed as decrease in sporulation area at 0.112 ml/l applied 24 hr prior to inoculation after 5 days relative to untreated-control
Monilinia fructicola [16] = assay: Fungicidal activity against Monilinia fructicola isolate GADL133.04 infected peach fruit assessed as decrease in sporulation area at 0.131 ml/l applied 24 hr after inoculation after 5 days relative to untreated-control
Monilinia fructicola [17] = assay: Fungicidal activity against Monilinia fructicola isolate GADL133.04 infected peach fruit assessed as decrease in sporulation area at 0.131 ml/l applied 24 hr prior to inoculation after 5 days relative to untreated-control
Monilinia fructicola [18] = assay: Fungicidal activity against Monilinia fructicola isolate SCDL71.01 infected peach fruit assessed as decrease in sporulation area at 0.131 ml/l applied 24 hr after inoculation after 5 days relative to untreated-control
Monilinia fructicola [19] = assay: Fungicidal activity against Monilinia fructicola isolate GADL193.04 infected peach fruit assessed as decrease in brown rot disease incidence at 0.131 ml/l applied 24 hr after inoculation after 5 days relative to untreated-control
Monilinia fructicola [20] = assay: Fungicidal activity against Monilinia fructicola isolate SCDL71.01 infected peach fruit assessed as decrease in sporulation area at 0.131 ml/l applied 24 hr prior to inoculation after 5 days relative to untreated-control
Monilinia fructicola [21] = assay: Fungicidal activity against Monilinia fructicola isolate SCDL71.01 infected peach fruit assessed as decrease in brown rot disease incidence at 0.131 ml/l applied 24 hr prior to inoculation after 5 days relative to untreated-control
Monilinia fructicola [22] = assay: Fungicidal activity against Monilinia fructicola isolate SCDL71.01 infected peach fruit assessed as decrease in brown rot disease incidence at 0.131 ml/l applied 24 hr after inoculation after 5 days relative to untreated-control
Monilinia fructicola [23] = assay: Fungicidal activity against Monilinia fructicola isolate GADL133.04 infected peach fruit assessed as decrease in brown rot disease incidence at 0.131 ml/l applied 24 hr prior to inoculation after 5 days relative to untreated-control
Monilinia fructicola [24] = assay: Fungicidal activity against Monilinia fructicola isolate GADL193.04 infected peach fruit assessed as decrease in brown rot disease incidence at 0.131 ml/l applied 24 hr prior to inoculation after 5 days relative to untreated-control
Monilinia fructicola [25] = assay: Fungicidal activity against Monilinia fructicola isolate GADL133.04 infected peach fruit assessed as decrease in brown rot disease incidence at 0.131 ml/l applied 24 hr after inoculation after 5 days relative to untreated-control
Monilinia fructicola [26] = assay: Fungicidal activity against Monilinia fructicola isolate GADL193.04 infected peach fruit assessed as decrease in sporulation area at 0.131 ml/l applied 24 hr after inoculation after 5 days relative to untreated-control
Monilinia fructicola [27] = assay: Fungicidal activity against Monilinia fructicola isolate GADL193.04 infected peach fruit assessed as decrease in sporulation area at 0.131 ml/l applied 24 hr prior to inoculation after 5 days relative to untreated-control
Monilinia fructicola [28] = assay: Fungicidal activity against Monilinia fructicola isolate SCDL71.01 infected peach fruit assessed as decrease in sporulation area at 0.135 ml/l applied 24 hr after inoculation after 5 days relative to untreated-control
Monilinia fructicola [29] = assay: Fungicidal activity against Monilinia fructicola isolate SCDL71.01 infected peach fruit assessed as decrease in sporulation area at 0.135 ml/l applied 24 hr prior to inoculation after 5 days relative to untreated-control
Monilinia fructicola [30] = assay: Fungicidal activity against Monilinia fructicola isolate GADL193.04 infected peach fruit assessed as decrease in brown rot disease incidence at 0.135 ml/l applied 24 hr after inoculation after 5 days relative to untreated-control
Monilinia fructicola [31] = assay: Fungicidal activity against Monilinia fructicola isolate GADL133.04 infected peach fruit assessed as decrease in brown rot disease incidence at 0.135 ml/l applied 24 hr after inoculation after 5 days relative to untreated-control
Monilinia fructicola [32] = assay: Fungicidal activity against Monilinia fructicola isolate GADL193.04 infected peach fruit assessed as decrease in brown rot disease incidence at 0.135 ml/l applied 24 hr prior to inoculation after 5 days relative to untreated-control
Monilinia fructicola [33] = assay: Fungicidal activity against Monilinia fructicola isolate GADL133.04 infected peach fruit assessed as decrease in brown rot disease incidence at 0.135 ml/l applied 24 hr prior to inoculation after 5 days relative to untreated-control
Monilinia fructicola [34] = assay: Fungicidal activity against Monilinia fructicola isolate SCDL71.01 infected peach fruit assessed as decrease in brown rot disease incidence at 0.135 ml/l applied 24 hr prior to inoculation after 5 days relative to untreated-control
Monilinia fructicola [35] = assay: Fungicidal activity against Monilinia fructicola isolate SCDL71.01 infected peach fruit assessed as decrease in brown rot disease incidence at 0.135 ml/l applied 24 hr after inoculation after 5 days relative to untreated-control
Monilinia fructicola [36] = assay: Fungicidal activity against Monilinia fructicola isolate GADL193.04 infected peach fruit assessed as decrease in sporulation area at 0.135 ml/l applied 24 hr after inoculation after 5 days relative to untreated-control
Monilinia fructicola [37] = assay: Fungicidal activity against Monilinia fructicola isolate GADL133.04 infected peach fruit assessed as decrease in sporulation area at 0.135 ml/l applied 24 hr after inoculation after 5 days relative to untreated-control
Monilinia fructicola [38] = assay: Fungicidal activity against Monilinia fructicola isolate GADL133.04 infected peach fruit assessed as decrease in sporulation area at 0.135 ml/l applied 24 hr prior to inoculation after 5 days relative to untreated-control
Monilinia fructicola [39] = assay: Fungicidal activity against Monilinia fructicola isolate GADL193.04 infected peach fruit assessed as decrease in sporulation area at 0.135 ml/l applied 24 hr prior to inoculation after 5 days relative to untreated-control

## N#CC(CCc1ccc(Cl)cc1)(Cn1cncn1)c1ccccc1 (stereo not given) [FENBUCONAZOLE]
Monilinia fructicola [1]
  Activity: Active
Monilinia fructicola [2]
  Activity: Active
Monilinia fructicola [3]
  Activity: Active
Monilinia fructicola [4]
  Activity: Active
Monilinia fructicola [5]
  Activity: Active
Monilinia fructicola [6]
  Activity: Active
Monilinia fructicola [7]
  EC50: 0.019 uL/ml
Monilinia fructicola [8]
  Activity: Active
Monilinia fructicola [9]
  Activity: Active
Monilinia fructicola [10]
  Activity: Active
Monilinia fructicola [11]
  Activity: Active
Monilinia fructicola [12]
  Activity: Active
Monilinia fructicola [13]
  Activity: Active
Monilinia fructicola [14]
  Activity: Active
Monilinia fructicola [15]
  Activity: Active

## CCCC1COC(Cn2cncn2)(c2ccc(Cl)cc2Cl)O1 (stereo not given) [PROPICONAZOLE]
Monilinia fructicola [16]
  Activity: Active
Monilinia fructicola [17]
  Activity: Active
Monilinia fructicola [18]
  Activity: Active
Monilinia fructicola [19]
  Activity: Active
Monilinia fructicola [7]
  EC50: 0.023 uL/ml
Monilinia fructicola [20]
  Activity: Active
Monilinia fructicola [10]
  Activity: Active
Monilinia fructicola [11]
  Activity: Active
Monilinia fructicola [21]
  Activity: Active
Monilinia fructicola [22]
  Activity: Active
Monilinia fructicola [23]
  Activity: Active
Monilinia fructicola [24]
  Activity: Active
Monilinia fructicola [25]
  Activity: Active
Monilinia fructicola [26]
  Activity: Active
Monilinia fructicola [27]
  Activity: Active

## CC(C)(C)C(O)(CCc1ccc(Cl)cc1)Cn1cncn1 (stereo not given) [TEBUCONAZOLE]
Monilinia fructicola [28]
  Activity: Active
Monilinia fructicola [29]
  Activity: Active
Monilinia fructicola [30]
  Activity: Active
Monilinia fructicola [31]
  Activity: Active
Monilinia fructicola [32]
  Activity: Active
Monilinia fructicola [33]
  Activity: Active
Monilinia fructicola [7]
  EC50: 0.018 uL/ml
Monilinia fructicola [10]
  Activity: Active
Monilinia fructicola [11]
  Activity: Active
Monilinia fructicola [34]
  Activity: Active
Monilinia fructicola [35]
  Activity: Active
Monilinia fructicola [36]
  Activity: Active
Monilinia fructicola [37]
  Activity: Active
Monilinia fructicola [38]
  Activity: Active
Monilinia fructicola [39]
  Activity: Active
